This assay in a line: Skeletal imaging with a scintillation camera after intravenous injection of the imaging agent. The format is in vivo, human. The following applies: acid or its monosodium salt replaces AMDP in the Example I kit; compared with the Example I result. As to the method: An imaging agent is prepared using this kit by adding about 5 ml of a pertechnetate-Tc99m physiological saline solution, with an activity of about 0.278 x 10^10 Bq (about 75 mCi), from a commercial technetium source. The vial is agitated until the kit components are dissolved. About 1 ml of the agent is slowly injected, over a period of about 30 seconds, into an adult human subject weighing about 75 kg.

In the case of `CN(C)C(P(=O)(O)O)P(=O)(O)O` [methane-N,N-dimethylaminodiphosphonic acid], the “skeletal images, carrier used instead of AMDP in the kit of Example I” value (shortened to “skeletal images, carrier used instead”) was “substantially similar results”.

Regarding `NCC(O)(P(=O)(O)O)P(=O)(O)O` [ethane-1-hydroxy-2-amino-1,1-diphosphonic acid], the “skeletal images, carrier used instead” value is reported as “substantially similar results”.

`NCCC(O)(P(=O)(O)O)P(=O)(O)O` [propane-1-hydroxy-3-amino-1,1-diphosphonic acid]: the “skeletal images, carrier used instead” value is given as “substantially similar results”.

As for `NC(O)(P(=O)(O)O)P(=O)(O)O` [methaneaminohydroxydiphosphonic acid], the “skeletal images, carrier used instead” value is on record as “substantially similar results”.

As to `CNC(P(=O)(O)O)P(=O)(O)O` [methane-N-methylaminodiphosphonic acid], the “skeletal images, carrier used instead” value is on record as “substantially similar results”.
